This is an account of results in publication PMC9781087, “Discovery of New Microbial Collagenase Inhibitors” (Life, 2022).

Read-outs that look alike come from different tables or passages of the source.

One data set addresses collagenase A (ColA) (Clostridium perfringens, UniProt P43153). In words: biochemical. Also on record: species or system C. perfringens. To be noted: for Inhibition (%) on ColA: after 30 min of incubation.
Another data set is described as follows: Solubility. The note with it: in words.
In data set [1] the test system is Staphylococcus aureus, Enterococcus faecalis, and Staphylococcus epidermidis. Also noted: method as in PMID 31486108. The note with it: cited from earlier work.
The test system of the next data set is mice. Also noted: method as in PMID 34684834. The note with it: acute toxicity; cited from earlier work.
Data set [2] has as its system neuraminidase protein of Clostridium perfringens. The note with it: cited from earlier work.
The subject of data set [3] is rats intratendineously injected with collagenase. Also noted: method as in PMID 28165813. The note with it: intragastrical administration, 100 mg/kg; cited from earlier work.
Data set [4] concerns the target collagenase from Clostridium histolyticum. Also noted: method as in PMID 16276971. The note with it: cited from earlier work.
[5] abbreviates: read-out: Inhibition (%) on ColA.
Where [6] appears, read: read-out: Inhibition(%) on ColA.
[7] abbreviates: 100 µM, preliminary screening (Table S1), * = compound precipitated due to low solubility.

collagenase A (ColA), sequence (P43153 87-1104 limits assumed): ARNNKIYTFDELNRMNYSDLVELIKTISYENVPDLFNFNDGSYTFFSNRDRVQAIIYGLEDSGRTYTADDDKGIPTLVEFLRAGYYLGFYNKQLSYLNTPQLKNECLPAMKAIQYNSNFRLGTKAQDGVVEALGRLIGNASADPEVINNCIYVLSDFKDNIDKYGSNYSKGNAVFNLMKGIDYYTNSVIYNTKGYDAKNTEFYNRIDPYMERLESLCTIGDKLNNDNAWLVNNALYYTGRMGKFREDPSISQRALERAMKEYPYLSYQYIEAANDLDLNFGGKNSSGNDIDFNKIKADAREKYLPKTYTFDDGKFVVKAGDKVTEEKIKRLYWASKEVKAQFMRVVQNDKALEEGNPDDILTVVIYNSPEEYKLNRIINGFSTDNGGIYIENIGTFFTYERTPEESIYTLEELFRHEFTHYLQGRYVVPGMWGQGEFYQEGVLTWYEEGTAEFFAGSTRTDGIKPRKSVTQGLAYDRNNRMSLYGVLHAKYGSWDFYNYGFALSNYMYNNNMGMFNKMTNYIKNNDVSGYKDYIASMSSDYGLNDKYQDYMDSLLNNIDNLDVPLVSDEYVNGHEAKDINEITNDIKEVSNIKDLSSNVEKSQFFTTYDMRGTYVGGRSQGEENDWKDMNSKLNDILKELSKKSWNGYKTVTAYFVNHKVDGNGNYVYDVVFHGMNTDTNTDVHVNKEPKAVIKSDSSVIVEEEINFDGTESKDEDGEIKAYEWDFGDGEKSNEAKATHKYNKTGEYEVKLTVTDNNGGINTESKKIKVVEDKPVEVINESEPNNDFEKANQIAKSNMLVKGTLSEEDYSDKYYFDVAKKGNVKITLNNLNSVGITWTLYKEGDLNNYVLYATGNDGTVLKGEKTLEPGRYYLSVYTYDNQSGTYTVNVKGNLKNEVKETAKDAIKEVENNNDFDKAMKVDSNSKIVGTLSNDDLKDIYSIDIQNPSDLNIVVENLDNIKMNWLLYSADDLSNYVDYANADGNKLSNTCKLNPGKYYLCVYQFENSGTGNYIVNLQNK

For the molecule `O=C1c2ccc(O)cc2OC(c2cc(O)c(O)c(O)c2)C1O` (centres unmarked) [Dihydrorobinetin, dihydrorobinetin], on collagenase A (ColA) (10 µM, mean ± SD of three replications), the “Inhibition (%) on ColA” value is listed as “Almost complete inhibition”. On collagenase A (ColA) (setting [5]), the inhibition – broadly, the drop in the measured response relative to a control, in per cent – at 1 µM is -16.5 ± 1.6%; the inhibition at 5 µM is -29.7 ± 0.5%; the inhibition at 10 µM is 105.1 ± 0.5%. In addition, the inhibition at 100 µM at collagenase A (ColA) (setting [6]) was determined as 96.9%. Also, the solubility result in the data set “Solubility” is “poor solubility in water”.
In the case of `O=C1C=CC(=O)c2c(O)cccc21` [Juglone, juglone], the “inhibitory effect on ColA (in words)” value on collagenase A (ColA) is recorded as “potent inhibitors of ColA”. Moreover, on collagenase A (ColA) (100 µM, mean ± SD of three replications (five-dose assay)), the “Inhibition (%) on ColA” value was “Almost complete inhibition”. Moreover, at collagenase A (ColA) (setting [5]), the inhibition at 1 µM was 13.8 ± 1.5%, the inhibition at 5 µM stood at 50.6 ± 0.5%, the inhibition at 10 µM is 69.2 ± 0.4% and the inhibition at 50 µM amounted to 80.8 ± 0.7%. The “impact on the bacterial growth” value in data set [1] is given as “low impact on the bacterial growth”.
Take `COc1cc2c(cc1OC)-c1cc3ccc(OC)c(OC)c3c[n+]1CC2` [Palmatine chloride, palmatine chloride]: on collagenase A (ColA) (50 µM, mean ± SD of three replications), the “Inhibition (%) on ColA” value is “Almost complete inhibition”. At collagenase A (ColA) (setting [5]), the inhibition at 1 µM is 15.5 ± 3.9%, the inhibition at 5 µM came to 35.4 ± 1.8%, the inhibition at 10 µM turned out to be 84.9 ± 1.5% and the inhibition at 50 µM was 97.9 ± 1.6%. The inhibition at 100 µM at collagenase A (ColA) (setting [5]) amounted to 98.7 ± 0.4%. For the same molecule, the inhibition at 100 µM on collagenase A (ColA) (setting [6]) turned out to be 103%. Also, the “lethal dose 50” value in the data set on mice was 1533.68 mg/kg. The “neuraminidase inhibition (in words)” value in data set [2] is “potent effect”.
Consider `O=C(/C=C/C=C/c1ccc2c(c1)OCO2)N1CCCCC1` [Piperine, piperine], for which, on collagenase A (ColA), the “IC50 (in words)” value is “nanomolar range” and the “inhibitory effect on ColA (in words)” value is recorded as “potent inhibitory effects on ColA, even at small concentration”. Moreover, at collagenase A (ColA) (setting [5]), the inhibition at 1 µM was 84.5 ± 0.4%, the inhibition at 5 µM was determined as 82.4 ± 0.4% and the inhibition at 10 µM was determined as 72.5 ± 2.7%. In addition, the inhibition at 100 µM on collagenase A (ColA) (setting [6]) turned out to be 81.1%. For the same molecule, the “morphological structure of rats' tendons” value in data set [3] is listed as “improvement of the morphological structure”. In addition, the solubility result in the data set “Solubility” was “low solubility”.
`Cl.NCCS` [cysteamine hydrochloride, reference compound]: the “Inhibition (%) on ColA” value at collagenase A (ColA) (setting [7]) was 2.8%.
As for `N[C@@H](CS)C(=O)O` [cysteine], the inhibition at 100 µM at collagenase A (ColA) (setting [6]) is 1.7%.
In the case of `COc1ccc(-c2coc3cc(OC)ccc3c2=O)cc1` [daidzein dimethyl ether], the “Inhibition (%) on ColA” value at collagenase A (ColA) (setting [7]) is given as 15.7%.
Turning to `O=c1c(-c2ccc(O)cc2)coc2cc(O)ccc12` [daidzein], the inhibition at 100 µM at collagenase A (ColA) (setting [6]) was found to be 5.8%.
Same read-out and setting: next, `Oc1cc(O)c2c(c1)O[C@H](c1ccc(O)c(O)c1)[C@H](O)C2` [epicatechin]: 3.6%.
`O=c1ccc2cc(O)c(O)cc2o1` [esculetin]: the “inhibitory effect on ColA (in words)” value against collagenase A (ColA) is on record as “low effects”. Also, the inhibition at 100 µM at collagenase A (ColA) (setting [6]) worked out at 11.8%.
Take `CC(O)(P(=O)(O)O)P(=O)(O)O` [etidronic acid, reference compound]: the inhibition at 100 µM at collagenase A (ColA) (setting [6]) amounted to 23%.
The same measure, in the same setting: next, `O=C(O)c1cc(O)c(O)c(O)c1` [gallic acid]: -21.4%; `O=c1c(-c2ccc(O)cc2)coc2cc(O)cc(O)c12` [genistein]: -1.1%; `COc1cc(-c2oc3cc(O)cc(O)c3c(=O)c2O)ccc1O` [isorhamnetin]: 19.9%.
On the same count and under the same terms, for `Cc1cc(NC(=O)C2=C(O)c3ccccc3S(=O)(=O)N2C)no1` [isoxicam, reference compound] the value was -10.1%.
Still for that read-out and setting: for `O=C1C=C(O)C(=O)c2ccccc21` [lawsone] the value was -6.1%.
As for `O=C(O)[C@@H](S)[C@@H](S)C(=O)O` [meso-2,3-dimercaptosuccinic acid, reference compound], the inhibition at 100 µM at collagenase A (ColA) (setting [6]) stood at 25.6%.
Consider `Cc1ccc(S(=O)(=O)N[C@@H](CCCNC(=N)N)C(=O)O)cc1` [nalpha-p-toluenesulfonyl-L-arginine], for which the “Inhibition (%) on ColA” value at collagenase A (ColA) (setting [7]) was determined as 24.8%.
`CC1=CC(=O)c2c(O)cccc2C1=O` [plumbagin]: on collagenase A (ColA) (setting [6]), the inhibition at 100 µM is -7.7%.
The same measure, in the same setting: for `COc1cc([C@@H]2c3cc4c(cc3[C@H](O)[C@H]3COC(=O)[C@H]23)OCO4)cc(OC)c1OC` [podophyllotoxin, reference compound] the value was -9.7%; for `O=C(O)[C@H]1/C(=C/CO)O[C@@H]2CC(=O)N21` [potassium clavulanate, reference compound], -8.1%.
As for `O=c1c(O)c(-c2ccc(O)c(O)c2)oc2cc(O)cc(O)c12` [quercetin], the IC50 (commonly the midpoint of a concentration-inhibition curve) in data set [4] is 286 µM.
As to `O=C(O)C1=C[C@@H](O)[C@@H](O)[C@H](O)C1` [shikimic acid], the inhibition at 100 µM on collagenase A (ColA) (setting [6]) is -0.2%.
Consider `O=S(=O)(O)CCS` [sodium 2-mercaptoethanesulfonate, reference compound], for which the inhibition at 100 µM on collagenase A (ColA) (setting [6]) is 20.6%.
Regarding `CC1(C)[C@H](C(=O)O)N2C(=O)C[C@H]2S1(=O)=O` [sulbactam, reference compound], the inhibition at 100 µM on collagenase A (ColA) (setting [6]) is -10.7%.
Same read-out and setting: for `C[C@]1(Cn2ccnn2)[C@H](C(=O)O)N2C(=O)C[C@H]2S1(=O)=O` [tazobactam, reference compound] the value was 18.7%.
In the case of `c1ccc2c3c([nH]c2c1)CNCC3` [tetrahydronorharman], the “Inhibition (%) on ColA” value at collagenase A (ColA) (setting [7]) came out at 21.3%.
The same measure, in the same setting: for `C[C@@H]1O[C@@H](OC[C@H]2O[C@@H](Oc3c(-c4ccc(OCCO)c(OCCO)c4)oc4cc(OCCO)cc(O)c4c3=O)[C@H](O)[C@@H](O)[C@@H]2O)[C@H](O)[C@H](O)[C@H]1O` [trihydroxyethylrutin, reference compound] the value was 1.3%.
`O=c1ccc2ccc(O)cc2o1` [umbelliferone]: at collagenase A (ColA) (setting [6]), the inhibition at 100 µM is -10.2%.
As for `CC(=O)c1c(O)c(C)c(O)c2c1OC1=CC(=O)C(C(C)=O)C(=O)C12C` (centres unmarked) [usnic acid], the inhibition at 100 µM on collagenase A (ColA) (setting [6]) worked out at 3.9%.
Consider S-(acetamidomethyl)-L-cysteine, for which the “Inhibition (%) on ColA” value at collagenase A (ColA) (setting [7]) is reported as -15.2%.
As to myricitrin, the “inhibitory effect on ColA (in words)” value at collagenase A (ColA) was “low inhibitory effect”.
